Measurements published in PubChem BioAssay AID1996.
In brackets after ≈: the same amount, converted by molar mass.

settings: buffer; pH 7.4; 200.0 µM

Structure (SMILES) | solubility kinetic [µg/mL]
CCC(C)NS(=O)(=O)c1cc2c3c(c1)CCN3C(=O)CC2 (stereo not drawn) | > 46.3
COc1cccc(OC)c1OCCNCC1COc2ccccc2O1.Cl (stereo not drawn) | > 57.3
O=C(Cc1ccc(Cl)cc1)NCc1nc(-c2ccccc2)no1 | 1.9 (≈ 5.8 µM)
O=C(Nc1ccc(N2C(=O)CCC2=O)cc1Cl)c1cccs1 | > 50.2
CCCCN1CC(O)=C(c2nc(-c3ccc(Br)cc3)cs2)C1=N | < 0.3
Cc1cc(Cl)ccc1NC(=O)Cn1cncn1 | > 37.6
COC(=O)C1=C(C)NC(=O)NC1c1ccc2ccccc2c1 (stereo not drawn) | < 0.3
NC(=O)C(=O)NCCCN1CCOCC1 | > 32.3
Cc1cc(C)n(CC(=O)NCCC2=CCCCC2)n1 | > 39.2
O=c1cc(COc2ncnc3ccccc23)nc2sccn12 | > 46.5
N=C1C(c2ccccc2)=C(O)CN1c1cccc2ccccc12 | > 45.1
CCN(CC(=O)Nc1ccc2c(c1)OCCO2)S(=O)(=O)c1ccc(F)cc1 | > 59.2
CCS(=O)(=O)c1nc2ccccc2n1Cc1ccccn1 | > 45.2
O=C1c2ccccc2NC(c2ccc(O)cc2)N1c1ccccc1 (stereo not drawn) | 9.5 (≈ 30 µM)
COc1ccc(C)cc1S(=O)(=O)NC(C)C(=O)NC1CC1 (stereo not drawn) | > 46.9
COc1ccc(CCNC(=O)c2ccc3nc[nH]c3c2)cc1 | > 44.3
O=C(Nc1ccccn1)c1ccc2c(c1)OCO2 | > 36.3
COc1cc(C(=O)N[C@H](C(=O)NC2CCCc3ccccc32)C(C)C)cc(OC)c1OC (stereo partly drawn) | 4.9 (≈ 11.1 µM)
COc1ccccc1/C=C/C(=O)N1CCN(S(=O)(=O)c2cccs2)CC1 | 23.7 (≈ 60.4 µM)
Cc1ccc2nc(NCc3ccccc3)c(C#N)cc2c1 | 2.8 (≈ 10.2 µM)
O=C(Nc1cc(S(=O)(=O)N2CCCC2)ccc1Cl)c1ccncc1 | > 54.9
Cc1nnc(NC(=O)CN2CC(C)OC(C)C2)s1 (stereo not drawn) | > 40.6
O=C(NCc1ccccc1)c1ccccc1Br | 36.4 (≈ 125 µM)
COc1ccc(CN(C)CC(=O)Nc2cccc3ccccc23)cc1F | 15.1 (≈ 42.8 µM)

Structure (SMILES) | solubility kinetic [µg/mL]
COC(=O)CNC(=S)NC(=O)c1ccc(C(C)(C)C)cc1 | 25.4 (≈ 82.4 µM)
Clc1cc(/C=N\NC2=NCCN2)cc(Cl)n1 | > 38.7
CC(NC(=O)COC(=O)CN1C(=O)C2CCCCC2C1=O)c1ccccc1 (stereo not drawn) | > 55.9
COc1ccc(C(=O)C(C)OC(=O)CNC(=O)C2CCCCC2)cc1 (stereo not drawn) | > 52.1
CC(C)(C)C(=O)Nc1sc2c(c1C(=O)Nc1ccccn1)CCCC2 | < 0.3
CN(CC(=O)N1CCCCC1)S(=O)(=O)c1ccc(Cl)cc1 | 47.5 (≈ 144 µM)
COC(=O)c1c(C)nc2nonc2c1N | 30 (≈ 144 µM)
Cc1c(C(=O)Nc2cccc(S(=O)(=O)N3CCOCC3)c2)oc2ccc(Br)cc12 | 4.5 (≈ 9.39 µM)
c1ccc(C2CC(c3ccccc3)C(c3ccccc3)N2)cc1 (stereo not drawn) | 8.4 (≈ 28.1 µM)
CC(=O)Nc1ccc(S(=O)(=O)Nc2ccn(Cc3ccccc3Cl)n2)cc1 | > 60.7
CC(C)(C)c1cc(NC(=O)Nc2ccccc2)no1 | 4.1 (≈ 15.8 µM)
CN(CC(=O)Nc1ccc(F)cc1)C(=O)CCc1ccccc1 | 41.9 (≈ 133 µM)
CC1(C)Cc2ccccc2/C(=C/C(=O)c2ccccc2)N1 | < 0.6
CC(=O)c1ccc(NC(=O)N2CCN(c3ccc(C)cc3)C(C)C2)cc1 (stereo not drawn) | 39.4 (≈ 112 µM)
Cc1ccc(S(=O)(=O)NCC(=O)NCC2CCCCC2)cc1C | > 50.8
COc1ccc(C(=O)NCCNC(=O)c2ccc(C)nc2)cc1 | > 47
Cc1ccc(C(=O)OCC(=O)NCCN2C(=O)CSC2=O)cc1[N+](=O)[O-] | > 57.2
COc1ccc2oc(=O)c(C(=O)NCc3ccccc3)cc2c1 | 0.7 (≈ 2.26 µM)
O=C(COC(=O)C1CCCCC1)Nc1cccc(F)c1 | > 41.9
O=C(COC(=O)c1ccc(O)cc1)Nc1ccc(S(=O)(=O)N2CCCC2)cc1 | > 60.7
CN(Cc1ccccc1)C(=O)N1CCOCC1 | > 35.1
O=C(O)c1cccc2c1/C(=N/O)c1ccccc1-2 | > 35.9
O=C(O)c1cc(N2C(=O)CCC2=O)ccc1Cl | > 38
Cc1cccc(C(=O)OCC(=O)NC2CC2)c1O | > 37.4

Structure (SMILES) | solubility kinetic [µg/mL]
Cc1[nH]c2ccc(C(=O)N3CCC(C(N)=O)CC3)cc2c1C | > 44.9
COc1ccc(OC)c(N=Cc2c(O)[nH]c(=O)[nH]c2=O)c1 | 7.1 (≈ 24.4 µM)
O=C(Cn1cc(C(F)(F)F)ccc1=O)NC1CCCC1 | > 43.2
CCCc1cc(C(=O)Nc2cc(Cl)ccc2O)no1 | 0.6 (≈ 2.14 µM)
COC(=O)c1sc(S(=O)(=O)N2CCN(c3ccccc3F)CC2)c(C(=O)OC)c1C | 2.1 (≈ 4.6 µM)
Br.COc1cccc(CNCC2CCCO2)c1 (stereo not drawn) | 44.1
COc1nc(SCC(=O)Nc2ccccc2Cl)nc(N(C)C)n1 | 20.4 (≈ 57.7 µM)
COc1ccc(CCNC2=CC(=O)CC(C)(C)C2)cc1 | 40.4 (≈ 148 µM)
COc1cccc(N2CCN(C(=S)Nc3ccc(F)cc3)CC2)c1 | 0.6 (≈ 1.74 µM)
O=C(CC1SC(N2CCOCC2)=NC1=O)Nc1ccccc1F (stereo not drawn) | > 50.6
COc1ccc2c(CCNC(N)=S)c[nH]c2c1 | 17.7 (≈ 71 µM)
CC12CN3CC(C)(CN(C1)C3c1ccc(Cl)cc1)C2 (stereo not drawn) | 30.9 (≈ 112 µM)
CN(C)CCN=Cc1c(O)n(Cc2ccc3c(c2)OCO3)c(=O)c2ccccc12 | 16.3 (≈ 41.4 µM)
CC(C)C(C)NC(=O)Cn1cnc2c(oc3ccccc32)c1=O (stereo not drawn) | 17.3 (≈ 55.2 µM)
Cc1cc(=O)[nH]c(SCC(=O)NC2CCCCC2)n1 | 32.3 (≈ 115 µM)
O=C(Nc1ccc2ccccc2c1)c1ccc(Cl)cc1 | < 0.6
CCc1ccc(NC(=O)Nc2cnccn2)cc1 | 9.9 (≈ 40.9 µM)
Cc1ccc(Nc2nc(Cl)nc(NC3CCCCC3)n2)cc1 | < 0.1
Cn1c(=O)n(CC(N)=O)c(=O)c2c1nc(Br)n2Cc1ccccc1 | > 58.8
Cc1ccc(C)c(OCCC(=O)NCCc2ccc(F)cc2)c1 | 31.5 (≈ 99.9 µM)
COc1ccc(NC(C)=O)cc1NC(=O)c1ccc2ccccc2c1 | 13 (≈ 38.9 µM)
COc1ccccc1NC(=O)c1ccc2c(c1)CCN2S(C)(=O)=O | > 52
NC(=O)c1c(NC(=O)c2ccccc2)sc2c1CCC2 | 1.3 (≈ 4.54 µM)
Cn1c(/C(C#N)=C(\O)c2ccc([N+](=O)[O-])s2)nc2ccccc21 | < 0.2

Structure (SMILES) | solubility kinetic [µg/mL]
COc1cc(NC(=S)NCCO)c(OC)cc1Cl | > 43.6
O=c1oc2ccccc2c(NCCO)c1[N+](=O)[O-] | > 37.5
O=C(c1ccncc1)c1ccc([N+](=O)[O-])cc1 | > 34.2
Cc1cccc2cc3c(nc12)-c1ccccc1C3=O | < 0.5
Cn1c(=O)c(S(=O)C2CCCCC2)c(O)c2ccccc21 (stereo not drawn) | > 45.8
Cc1cc(C)nc(SCc2ccc([N+](=O)[O-])cc2)n1 | 6.1 (≈ 22.2 µM)
CN1CCN(S(=O)(=O)c2cc([N+](=O)[O-])ccc2Cl)CC1 | > 48
N#C/C(=C\N1CCOCC1)S(=O)(=O)c1ccc(Cl)cc1 | 45 (≈ 144 µM)
O=C(COc1ccc2c(-c3ccccc3)cc(=O)oc2c1)NC(Cc1c[nH]c2ccccc12)C(=O)O (stereo not drawn) | > 72.4
O=C(Nc1ccc(F)c(F)c1)C1=COCCO1 | 35.6 (≈ 148 µM)
NC(=O)c1ccc(NC(=O)COC(=O)CC23CC4CC(CC(Br)(C4)C2)C3)cc1 | > 67.4
O=C(NCc1cccnc1)NC(=O)c1ccc(Cl)cc1 | 3.8 (≈ 13.1 µM)
COCCNC(=O)c1ccc2c(c1)C(=O)c1ccccc1-2 | > 42.2
O=[N+]([O-])c1ncccc1OCc1ccc(Cl)c(Cl)c1 | 0.4 (≈ 1.34 µM)
CCc1cccc(C)c1NC(=O)CN1C(=O)NC(CCc2ccccc2)C1=O (stereo not drawn) | 7.6 (≈ 20 µM)
CCOc1ccc(CN(C)CC(=O)NCc2ccccc2)cc1 | 34.8 (≈ 111 µM)
COc1cc2nc(CN3CCN(S(=O)(=O)c4ccc(Br)cc4)CC3)[nH]c(=O)c2cc1OC | 17.7 (≈ 33.8 µM)
CN(Cc1nc(-c2ccc(C(F)(F)F)cc2)no1)C1CCOCC1 | 37.3 (≈ 109 µM)
CCN1CCN(CCC(=O)Nc2cc(C)ccc2C)CC1 | > 43.4
O=C(COC(=O)/C=C/c1cccs1)NC1CCCCC1 | 9.4 (≈ 32 µM)
CCOc1ccccc1NC(=O)Cn1c(=O)oc2cc(Cl)ccc21 | 10.5 (≈ 30.3 µM)
Cc1cc(C)n(/C(=C/N(C)C)C(=O)c2ccccc2)n1 | > 40.4
O=C(NCCNC(=O)c1cnccn1)c1ccc(Cl)c(Cl)c1 | 6.9 (≈ 20.3 µM)
O=C(Nc1ccc(S(=O)(=O)N2CCCCC2)cc1)c1ccc(Cl)nc1 | 7.6 (≈ 20 µM)

Structure (SMILES) | solubility kinetic [µg/mL]
N#Cc1ccc(S(=O)(=O)Nc2ccccc2N2CCOCC2)cc1 | > 51.5
NS(=O)(=O)c1ccc(CNS(=O)(=O)c2cccc3nonc23)cc1 | 54.4 (≈ 148 µM)
O=C(O)CSC(=S)N1CCCC1 | 26.7 (≈ 130 µM)
CCN1C(=O)C(=Cc2cc(C)n(C3CC3)c2C)C(=O)N(CC)C1=S | 2.8 (≈ 8.1 µM)
Cn1c(=O)c(C=Nc2ccccc2)c(O)c2ccccc21 | 11.2 (≈ 40.2 µM)
N#C/C(=C\C=C\c1ccccc1[N+](=O)[O-])C(=O)NCc1ccccc1 | 3.7 (≈ 11.1 µM)
CN(C)S(=O)(=O)c1cccc(NC(=O)c2c[nH]c3ccccc23)c1 | 42.6 (≈ 124 µM)
N#C/C(=C\c1ccncc1)c1nc2ccccc2o1 | 12.9 (≈ 52.2 µM)
CSc1nc(C)cc(Oc2ccc(OCC(N)=O)nn2)n1 | > 46.1
COc1ccc(CCNC(=O)COC(=O)/C=C/c2cc(OC)ccc2OC)cc1 | 5.3 (≈ 13.3 µM)
COc1ccccc1C(=O)OCC(=O)Nc1cccc(S(=O)(=O)NC2=NCCCCC2)c1 | > 68.9
O=C(COC(=O)/C=C/c1ccco1)Nc1ccccc1 | 13.5 (≈ 49.8 µM)
Nc1nc(NCc2ccco2)nc(NC2CCCCC2)c1[N+](=O)[O-] | 0.3 (≈ 0.903 µM)
Brc1cccc(CN2CCCCCC2)c1 | 15.2 (≈ 56.7 µM)
COC(=O)c1c(NC(C)=O)csc1C | 29.2 (≈ 137 µM)
O=C1Nc2ccccc2C1C(C[N+](=O)[O-])c1ccccc1 (stereo not drawn) | > 42.3
CC(C)(C)C(=O)Nc1sc(-c2ccccc2)cc1C(=O)O | > 45.5
O=C(O/N=C/c1ccc2c(c1)OCO2)c1ccc([N+](=O)[O-])cc1 | 0.9 (≈ 2.86 µM)
N#Cc1nc(-c2ccc(Cl)cc2)oc1NCC1CCCO1 (stereo not drawn) | 2.5 (≈ 8.23 µM)
COCCCNC(=O)c1ccccc1C(F)(F)F | > 39.2
CN(C(=O)CNc1ccccc1Cl)C1CCS(=O)(=O)C1 (stereo not drawn) | > 47.5
O=C(Nc1ccc(N2CCCCCC2)cc1)c1ccc[nH]1 | 18.7 (≈ 66 µM)
